One series relates to seizures. Conditions: rats, even orally; cited from earlier work.
The next series has as its system neuropathic pain. To be noted: Knabl et al., 2008, cited from earlier work; for analgesic effect after repeated administration (tolerance): once per day for nine days.
For series [1], the target named is T1, GABAA/α2 (α2β3γ2 GABAA receptor) (Homo sapiens, UniProt P18507+P47869).
T1 construct: expressed in transfected cells
In words: competitive binding assay with [3H]flunitrazepam. To be noted: Table 3; read-out: Binding Affinity at GABAA/α2. The procedure:
(§1) Membranes were harvested with a Brandel cell harvester followed by three ice-cold washes onto polyethyleneimine-pretreated (0.3%) Whatman GF/C filters. Filters were dried overnight and then soaked in Ecoscint, a liquid scintillation cocktail (National Diagnostics; Atlanta, Ga.). Bound radioactivity was quantified by liquid scintillation counting. Membrane protein concentrations were determined using an assay kit from Bio-Rad (Hercules, Calif.) with bovine serum albumin as the standard.
as §1, with “The GABAA subunit selectivity of several compounds prepared as described above were determined using competitive binding assays. […] Membranes” for “Membranes”

The target in series [2] is T2, GABAA/α6 (α6β3γ2 GABAA receptor) (Homo sapiens, UniProt P18507+Q16445).
T2 construct: expressed in transfected cells
As to the kind of experiment: competitive binding assay with [3H]flunitrazepam. To be noted: Table 3; read-out: Binding Affinity at GABAA/α6. Here is the method: as §1
as §1, with “The GABAA subunit selectivity of several compounds prepared as described above were determined using competitive binding assays. […] Membranes” for “Membranes”

Series [3] has as its target T3, GABAA/α5 (α5β3γ2 GABAA receptor) (Homo sapiens, UniProt P18507+P31644).
T3 construct: expressed in transfected cells
As to the kind of experiment: competitive binding assay with [3H]flunitrazepam. To be noted: Table 3; read-out: Binding Affinity at GABAA/α5. The procedure:
as §1
as §1, with “The GABAA subunit selectivity of several compounds prepared as described above were determined using competitive binding assays. […] Membranes” for “Membranes”

Series [4] deals with T4, GABAA/α4 (α4β3γ2 GABAA receptor) (Homo sapiens, UniProt P18507+P48169).
T4 construct: expressed in transfected cells
As to the kind of experiment: competitive binding assay with [3H]flunitrazepam. Conditions: Table 3; read-out: Binding Affinity at GABAA/α4. Here is the method: as §1
as §1, with “The GABAA subunit selectivity of several compounds prepared as described above were determined using competitive binding assays. […] Membranes” for “Membranes”

For series [5], the target named is T5, GABAA/α3 (α3β3γ2 GABAA receptor) (Homo sapiens, UniProt P18507+P34903).
T5 construct: expressed in transfected cells
In words: competitive binding assay with [3H]flunitrazepam. To be noted: Table 3; read-out: Binding Affinity at GABAA/α3. The procedure: as §1
as §1, with “The GABAA subunit selectivity of several compounds prepared as described above were determined using competitive binding assays. […] Membranes” for “Membranes”

For series [6], the target named is T6, GABAA/α1 (α1β3γ2 GABAA receptor) (Homo sapiens, UniProt P14867+P18507).
T6 construct: expressed in transfected cells
As to the kind of experiment: competitive binding assay with [3H]flunitrazepam. To be noted: Table 3; read-out: Binding Affinity at GABAA/α1. The procedure: as §1
as §1, with “The GABAA subunit selectivity of several compounds prepared as described above were determined using competitive binding assays. […] Membranes” for “Membranes”

Series [7] concerns motor coordination of mice. In words: rotarod test (motor impairment). To be noted: HZ166 16 and 48 mg/kg, gabapentin 10 and 30 mg/kg, i.p., 60 min after treatment. It is filed as in vivo. The procedure:
Motor impairment: A possible impairment of motor function was analyzed in the rotarod test. Mice were trained on the rotarod (diameter 3 cm, 2 rpm) for 2 days. Animals capable of remaining on the rotarod in the absence of treatment for at least 2 min were selected for drug testing. On the test day, the latency to fall off the rod was recorded before and 60 minutes after treatment with vehicle, HZ166 or gabapentin.
On the technique in general: The rotarod test checks motor coordination on a turning rod.

In series [8] the test system is locomotor activity of mice. In words: spontaneous locomotor activity (activity cage). It is filed as in vivo. Conditions: i.p. The procedure: Locomotor activity: Spontaneous locomotor activity was tested using a commercially available microprocessor equipped activity cage (actiframe, Gerb Elektronik). Mice were placed in the activity cage 15 min before testing. Locomotor activity was measured for 1 h after intraperitoneal administration of vehicle, gabapentin or HZ166 during the early light phase of the day-night cycle.

The subject of series [9] is neuropathic pain after CCI of the sciatic nerve. As to the kind of experiment: chronic constriction injury (CCI) model, mechanical sensitization (von Frey filaments). It is filed as in vivo, mice. Here is the method: In addition, the pro- or antinociceptive effects of the compounds of the present invention are analyzed in the chronic constriction injury (CCI) model. The GABAA receptor subunit selective test compounds of the present invention are analysed in the CCI model in 7-8-week-old C57BL/6 mice. See Bennett, G. J. & Xie, Y. K. A peripheral mononeuropathy in rat that produces disorders of pain sensation like those seen in man. […] Seven to eight week old mice are anesthetized with isofluran. Unilateral constriction injury of the left sciatic nerve just proximal to the trifurcation is performed with three loose ligatures. In sham-operated animals the sciatic nerve is exposed and the connective tissue is freed, but no ligatures are applied. […] Heat hyperalgesia, cold allodynia and mechanical sensitization are assessed 7-9 days after surgery. Mechanical sensitivity is assessed with electronic von Frey filaments (IITC).
Pain studies—Neuropathic pain: HZ166 and gabapentin were analyzed in the chronic constriction injury (CCI) model. Unilateral constriction injury of the left sciatic nerve just proximal to the trifurcation was performed as described previously (Bennett and Xie, 1988). Anesthesia was induced and maintained by 2% isoflurane, combined with oxygen (30%). The sciatic nerve was exposed at the mid-thigh level proximal to the sciatic trifurcation by blunt dissection through the biceps femoris muscle. […] of nerve were freed of adhering tissue and three chromic gut ligatures (4/0) (Ethicon) were loosely put around the nerve with about 1 mm spacing. The ligatures were tied until they elicited a brief twitch in the hindlimb. The surgical wound was closed in layers. Heat hyperalgesia and mechanical sensitization were assessed 7-16 days after surgery.
Pain Studies—Mechanical sensitization: Mechanical sensitivity was assessed with dynamic von Frey filaments (IITC, Woodland Hills, Calif.). 4-5 measurements were made for each time point and animal and averaged. Measurements of paw withdrawal thresholds of the injured paw and of the contralateral paw were made alternately.
Statistical Analysis: For all different doses and vehicle, baseline paw withdrawal thresholds/latencies on day 7 after nerve ligation or on day 2 after zymosan A injection were subtracted from all later withdrawal thresholds and the area under the curve (AUC) was calculated. Drug effects were expressed as percent maximum possible effect (MPE) calculated from comparisons of paw withdrawal latencies or thresholds obtained prior to surgery or inflammation and before and after drug treatment. […] Unless otherwise indicated, statistical comparisons were made with one-way analysis of variance (ANOVA) followed by Scheffe's post hoc test. P values<0.05 were considered significant.

Take `C#Cc1ccc2c(c1)C(c1ccccn1)=NCc1c(C(=O)O)ncn1-2` [HZ-166 acid]: in the series with seizures, the “anticonvulsant activity of the sole metabolite” value is “anticonvulsant”.
Turning to `Cn1ncnc1COc1nn2c(-c3cc(F)ccc3F)nnc2cc1C(C)(C)C` [L-838,417], in the series on neuropathic pain, the “antihyperalgesic activity in a rat neuropathic pain model” value is recorded as “good antihyperalgesic activity” and the “analgesic effect after repeated administration (tolerance)” value is “did not diminish”.
In the case of `C#Cc1ccc2c(c1)C(c1ccccc1)=NCC(=O)N2C` [QB-II-066, 1-Methyl-7-acetyleno-5-phenyl-1,3-dihydro-benzo[e]-1,4-diazepin-2-one], the Ki in series [1] is 42.1 nM; in series [2] it was above 1000 nM; in [3], 6.8 nM; in series [4] it was above 1000 nM; in [5], 47.4 nM; in series [6], 76.3 nM.
As to `NCC1(CC(=O)O)CCCCC1` [gabapentin, reference compound], in [7], the “interfered with rotarod performance” value is recorded as “Neither”. For the same molecule, in [8], the “dose at which sedative effects were observed” value is on record as 30 mg/kg and the “doses with significant reduction in locomotor activity” value was at least 30 mg/kg. For the same molecule, in [9] (i.p., CCI model), the “reversal of mechanical hypersensitivity” value was “dose-dependent reversal”. Further, the “maximum antihyperalgesic effect (efficacy) compared with HZ166” value in series [9] (reached only with sedative doses) was “higher”.
Regarding `CN1CC[C@]23c4c5ccc(O)c4O[C@H]2[C@@H](O)C=C[C@H]3[C@H]1C5` [morphine], in the series with neuropathic pain, the “analgesic effect after repeated administration (tolerance)” value is on record as “complete tolerance”.
